Results published in PMC12024264, “Frog Skin Peptides Hylin-a1, AR-23, and RV-23: Promising Tools Against Carbapenem-Resistant Escherichia coli and Klebsiella pneumoniae Infections” (Antibiotics, 2025).
Values after ≈ are worked out from the molar mass of the structure shown. Where two headings read alike, the source gives them in different places.

Tests used:
Experiment in all cases: Antibiotic resistance profile of clinical isolate (Table S1)
K. pneumoniae 1711 = format: cell-based, Klebsiella pneumoniae; conditions: for MIC: Klebsiella pneumoniae
Method: (§1) Each strain was grown in Mueller Hinton Broth (MH Broth), and 5 × 10^5 CFU/mL was used to evaluate antibacterial activity. Clinical carbapenem-resistant K. pneumoniae and E. coli isolates were collected at the AOU of Virology and Microbiology of the University of Campania “Luigi Vanvitelli”. […]
(§2) Table S1. Antibiotic resistance profile of K. pneumoniae and E. coli clinical isolates . MIC: Minimum Inhibitory
(§3) Concentration was expressed in µg/mL; S: Sensible; I: Intermediate; R: Resistant.
(§4) Antibiotic Resistance Profile of the Clinical Isolated Bacteria
(§5) Antibiotics MIC (µg/mL) Interpretation […]

K. pneumoniae 1745 = format: cell-based, Klebsiella pneumoniae; conditions: for MIC: Klebsiella pneumoniae
Method: as §1, §2, §3, §4, §5

K. pneumoniae 1746 = format: cell-based, Klebsiella pneumoniae
Method: as §1, §2, §3, §4, §5

K. pneumoniae 311 = format: cell-based, Klebsiella pneumoniae; conditions: for MIC: Klebsiella pneumoniae
Method: as §1, §2, §3, §4, §5

E. coli 1376 = format: cell-based, Escherichia coli; conditions: for MIC: Escherichia coli
Method: as §1, §2, §3, §4, §5

E. coli 1441 = format: cell-based, Escherichia coli; conditions: for MIC: Escherichia coli
Method: as §1, §2, §3, §4, §5

E. coli 2267 = format: cell-based, Escherichia coli; conditions: for MIC: Escherichia coli
Method: as §1, §2, §3, §4, §5

E. coli 3140 = format: cell-based, Escherichia coli; conditions: for MIC: Escherichia coli
Method: as §1, §2, §3, §4, §5

E. coli 716 = format: cell-based, Escherichia coli; conditions: for MIC: Escherichia coli
Method: as §1, §2, §3, §4, §5

[1] = Table S1, K. pneumoniae 1711, read-out: MIC
[2] = Table S1, K. pneumoniae 1745, read-out: MIC
[3] = Table S1, E. coli 2267, read-out: MIC

Row | Compound | MIC (K. pneumoniae 1711; [1]) | Interpretation (K. pneumoniae 1711; Table S1, K. pneumoniae 1711) | MIC (K. pneumoniae 1745; [2]) | Interpretation (K. pneumoniae 1745; Table S1, K. pneumoniae 1745) | MIC (K. pneumoniae 1746; Klebsiella pneumoniae, 1746) | Interpretation (K. pneumoniae 1746; Table S1, K. pneumoniae 1746) | MIC (K. pneumoniae 311; 311) | Interpretation (K. pneumoniae 311; Table S1, K. pneumoniae 311) | MIC (E. coli 1376; 1376) | Interpretation (E. coli 1376; Table S1, E. coli 1376) | MIC (E. coli 1441; 1441) | Interpretation (E. coli 1441; Table S1, E. coli 1441) | MIC (E. coli 2267; [3]) | Interpretation (E. coli 2267; Table S1, E. coli 2267) | MIC (E. coli 3140; 3140) | Interpretation (E. coli 3140; Table S1, E. coli 3140) | MIC (E. coli 716; 716) | Interpretation (E. coli 716; Table S1, E. coli 716) | further results
1 | NCC[C@H](O)C(=O)N[C@@H]1C[C@H](N)[C@@H](O[C@H]2O[C@H](CN)[C@@H](O)[C@H](O)[C@H]2O)[C@H](O)[C@H]1O[C@H]1O[C@H](CO)[C@@H](O)[C@H](N)[C@H]1O [Amikacin] | ≤ 4 µg/mL | S | 8 µg/mL (≈ 13.7 µM) | S | ≤ 4 µg/mL | S | ≤ 4 µg/mL | S | > 16 µg/mL | R | ≤ 4 µg/mL | S | ≤ 4 µg/mL | S | ≤ 4 µg/mL | S | ≤ 4 µg/mL | S | 
2 | CC1(C)S[C@@H]2[C@H](NC(=O)[C@H](N)c3ccccc3)C(=O)N2[C@H]1C(=O)O [Ampicillin] |  | R |  | R | > 8 µg/mL | R | > 8 µg/mL | R | > 8 µg/mL | R | > 8 µg/mL | R |  | R | > 8 µg/mL | R | > 8 µg/mL | R | MIC (K. pneumoniae 1711; 1711): > 8 µg/mL; MIC (K. pneumoniae 1745; 1745): > 8 µg/mL; MIC (E. coli 2267; 2267): > 8 µg/mL
3 | C[C@H]1[C@H](NC(=O)/C(=N\OC(C)(C)C(=O)O)c2csc(N)n2)C(=O)N1S(=O)(=O)O [Aztreonam] |  | R |  | R |  |  |  |  |  |  |  |  |  | R |  |  |  |  | 
4 | CO/N=C(\C(=O)N[C@@H]1C(=O)N2C(C(=O)[O-])=C(C[N+]3(C)CCCC3)CS[C@H]12)c1csc(N)n1 [Cefepime] |  | R |  | R |  |  |  |  |  |  |  |  |  | R |  |  |  |  | 
5 | CC(C)(O/N=C(\C(=O)N[C@@H]1C(=O)N2C(C(=O)[O-])=C(C[N+]3(CCNC(=O)c4ccc(O)c(O)c4Cl)CCCC3)CS[C@H]12)c1csc(N)n1)C(=O)O [Cefiderocol] |  | I |  |  |  | S |  |  |  |  |  |  |  |  |  |  |  |  | 
6 | CC(C)(O/N=C(\C(=O)N[C@@H]1C(=O)N2C(C(=O)[O-])=C(C[n+]3ccccc3)CS[C@H]12)c1csc(N)n1)C(=O)O [Ceftazidime] | > 16 µg/mL | R | > 16 µg/mL | R | > 16 µg/mL | R | > 16 µg/mL | R | > 16 µg/mL | R | > 16 µg/mL | R | > 16 µg/mL | R | 16 µg/mL (≈ 29.3 µM) | R | > 16 µg/mL | R | 
7 | CO/N=C(\C(=O)N[C@@H]1C(=O)N2C(C(=O)O)=C(CSc3nc(=O)c(=O)[nH]n3C)CS[C@H]12)c1csc(N)n1 [Ceftriaxone] | > 4 µg/mL | R | > 4 µg/mL | R | > 4 µg/mL | R | > 4 µg/mL | R | > 4 µg/mL | R | > 4 µg/mL | R | > 4 µg/mL | R | ≤ 0.5 µg/mL | S | > 4 µg/mL | R | 
8 | CO/N=C(\C(=O)N[C@@H]1C(=O)N2C(C(=O)O)=C(COC(N)=O)CS[C@H]12)c1ccco1 [Cefuroxime] | > 8 µg/mL | R | > 8 µg/mL | R |  |  | > 8 µg/mL | R | > 8 µg/mL | R | > 8 µg/mL | R | > 8 µg/mL | R | > 8 µg/mL | R | > 8 µg/mL | R | 
9 | C[C@@H](O)[C@H]1C(=O)N2C(C(=O)O)=C(S[C@@H]3CN[C@H](C(=O)Nc4cccc(C(=O)O)c4)C3)[C@H](C)[C@H]12 [Ertapenem] | > 1 µg/mL | R | > 1 µg/mL | R | > 1 µg/mL | R | > 1 µg/mL | R | > 1 µg/mL | R | > 1 µg/mL | R | > 1 µg/mL | R | > 1 µg/mL | R | > 1 µg/mL | R | 
10 | C[C@@H]1O[C@@H]1P(=O)(O)O [Fosfomycin] | 32 µg/mL (≈ 232 µM) | S | ≤ 16 µg/mL | S | ≤ 16 µg/mL | S | ≤ 16 µg/mL | S | > 64 µg/mL | R | ≤ 16 µg/mL | S | ≤ 16 µg/mL | S |  |  | ≤ 16 µg/mL | S | 
11 | CNC(C)C1CCC(N)C(OC2C(N)CC(N)C(OC3OCC(C)(O)C(NC)C3O)C2O)O1 (stereo not shown) [Gentamicin] |  | R |  | R | 2 µg/mL (≈ 4.19 µM) | S | > 4 µg/mL | R | > 4 µg/mL | R | ≤ 1 µg/mL | S |  | S | ≤ 1 µg/mL | S | ≤ 1 µg/mL | S | MIC (K. pneumoniae 1711; 1711): > 4 µg/mL; MIC (K. pneumoniae 1745; 1745): > 4 µg/mL; MIC (E. coli 2267; 2267): ≤ 1 µg/mL
12 | C[C@@H](O)[C@H]1C(=O)N2C(C(=O)O)=C(SCCN=CN)C[C@H]12 [Imipenem] | > 8 µg/mL | R | > 8 µg/mL | R | 4 µg/mL (≈ 13.4 µM) | I | 2 µg/mL (≈ 6.68 µM) | S | > 8 µg/mL | R | 4 µg/mL (≈ 13.4 µM) | I | > 8 µg/mL | R | 2 µg/mL (≈ 6.68 µM) | S | > 8 µg/mL | R | 
13 | C[C@H]1COc2c(N3CCN(C)CC3)c(F)cc3c(=O)c(C(=O)O)cn1c23 [Levofloxacin] | > 1 µg/mL | R | > 1 µg/mL | R | 1 µg/mL (≈ 2.77 µM) | I | > 1 µg/mL | R | > 1 µg/mL | R | ≤ 0.25 µg/mL | S | > 1 µg/mL | R | ≤ 0.25 µg/mL | S | > 1 µg/mL | R | 
14 | O=C1CN(/N=C/c2ccc([N+](=O)[O-])o2)C(=O)N1 [Nitrofurantoin] |  |  |  |  |  |  |  |  |  |  |  |  |  |  | ≤ 16 µg/mL | S |  |  | 
15 | CCn1cc(C(=O)O)c(=O)c2cc(F)c(N3CCNCC3)cc21 [Norfloxacin] |  |  |  |  |  |  |  |  |  |  |  |  |  |  | ≤ 0.5 µg/mL | S |  |  | 
16 | CO[C@@]1(NC(=O)C(C(=O)O)c2ccsc2)C(=O)N2[C@@H](C(=O)O)C(C)(C)S[C@@H]21 (stereo partly shown) [Temocillin] | > 32 µg/mL | R | > 32 µg/mL | R |  |  |  | R |  | R |  | S | > 32 µg/mL | R |  | R |  | R | MIC (K. pneumoniae 311; Table S1, K. pneumoniae 311, read-out: MIC): > 32 µg/mL; MIC (E. coli 1376; Table S1, E. coli 1376, read-out: MIC): > 32 µg/mL; MIC (E. coli 1441; Table S1, E. coli 1441, read-out: MIC): 8 µg/mL (≈ 19.3 µM); MIC (E. coli 3140; Table S1, E. coli 3140, read-out: MIC): > 32 µg/mL; MIC (E. coli 716; Table S1, E. coli 716, read-out: MIC): > 32 µg/mL
17 | CN(C)c1cc(NC(=O)CNC(C)(C)C)c(O)c2c1C[C@H]1C[C@H]3[C@H](N(C)C)C(O)=C(C(N)=O)C(=O)[C@@]3(O)C(O)=C1C2=O [Tigecycline] |  |  |  |  |  |  |  |  | ≤ 0.5 µg/mL | S | ≤ 0.5 µg/mL | S | > 2 µg/mL | R |  |  | > 2 µg/mL | R | 
18 | Colistin |  |  |  |  |  | S |  |  |  |  |  |  |  |  |  |  |  |  | MIC (K. pneumoniae 1746; Table S1, K. pneumoniae 1746): 0.25 µg/mL
